# ± gives the standard deviation of the reports.
row,SMILES,glass transition temperature [°C]
1,*CC(*)C(=O)OCC(F)(F)C(F)(F)F (repeat unit),-26.00
2,*Oc1ccc(-c2ccc(OC(=O)c3ccc(-c4ccc(C(*)=O)cc4C(F)(F)F)c(C(F)(F)F)c3)cc2C(=O)OCCCCCCCCCCCOc2ccc(-c3ccc(C#N)cc3)cc2)c(C(=O)OCCCCCCCCCCCOc2ccc(-c3ccc(C#N)cc3)cc2)c1 (repeat unit),50.00
3,*c1ccc2c(c1)C(=O)N(c1ccc(-c3ccc(N4C(=O)c5ccc(C(*)(C(F)(F)F)C(F)(F)F)cc5C4=O)c(C)c3)cc1C)C2=O (repeat unit),352.00
4,*CC(*)C(=O)OCCCCCCCCCOC(=O)c1ccc(OC(=O)c2ccc(C#N)cc2)cc1 (repeat unit),15.00
5,*CCOCCOC(=O)CCCCCCCCCCC(=O)O* (repeat unit),-71.00
6,*Cc1ccc(C(C)(C)c2ccc(CN3C(=O)c4ccc(C(c5ccc6c(c5)C(=O)N(*)C6=O)(C(F)(F)F)C(F)(F)F)cc4C3=O)o2)o1 (repeat unit),134.00
7,*C(=O)Nc1ccc(C)cc1N1C(=O)CC(N2C(=O)c3ccc(*)cc3C2=O)C1=O (repeat unit),237.00
8,*C(=O)c1ccc2c(c1)C(=O)N(c1cccc(C(=O)c3cccc(N4C(=O)c5ccc(*)cc5C4=O)c3)c1)C2=O (repeat unit),242.00
9,*c1cccc(N2C(=O)c3ccc(Oc4ccc(S(=O)(=O)c5ccc(Oc6ccc7c(c6)C(=O)N(*)C7=O)cc5)cc4)cc3C2=O)c1 (repeat unit),265.00
10,*c1ccc(Oc2ccc(Oc3ccc(Oc4ccc(N5C(=O)c6ccc(Oc7ccc(-c8ccc(Oc9ccc%10c(c9)C(=O)N(*)C%10=O)cc8)cc7)cc6C5=O)cc4)cc3)cc2)cc1 (repeat unit),208.00
11,*Oc1cccc(Oc2ccc(NC(=O)c3ccc(-c4ccc(C(=O)Nc5ccc(*)cc5)c(C)c4)cc3C)cc2)c1 (repeat unit),213.00
12,*C1CCC(CC2CCC(N3C(=O)C4C5C=CC(C6C(=O)N(*)C(=O)C56)C4C3=O)C(C)C2)CC1C (repeat unit),241.00
13,*c1ccc(OCCCCCCCCCCOc2ccc(N3C(=O)c4ccc(-c5ccc6c(c5)C(=O)N(*)C6=O)cc4C3=O)cc2)cc1 (repeat unit),153.00
14,*c1ccc(Oc2ccc(Oc3ccc(N4C(=O)c5ccc(Oc6cc7ccccc7cc6Oc6ccc7c(c6)C(=O)N(*)C7=O)cc5C4=O)cc3)cc2)cc1 (repeat unit),224.50
15,*c1ccc2c3ccc(-c4ccc(-c5ccc(-c6ccc(*)s6)c6nccnc56)s4)cc3n(C(CCCCCCCC)CCCCCCCC)c2c1 (repeat unit),116.00
16,*c1ccc(Oc2ccc(Oc3ccc(-n4c(=O)c5cc6c(=O)n(*)c(=O)c6cc5c4=O)cc3)cc2-c2ccccc2)cc1 (repeat unit),271.00
17,*CC(*)(C)C(=O)OCCC1CCN(CCCCCCOc2ccc(/N=N/c3ccc([N+](=O)[O-])cc3)cc2)CC1 (repeat unit),27.00
18,*CC(*)(C)C(=O)OCCCCCCCCCCCOc1ccc(/C=N/c2ccc(C#N)cc2)cc1 (repeat unit),23.00
19,*CC(=O)Nc1ccc(Cc2ccc(NC(=O)CN3C(=O)c4ccc(C(=O)c5ccc6c(c5)C(=O)N(*)C6=O)cc4C3=O)cc2)cc1 (repeat unit),233.00
20,*c1ccc(Oc2ccc(Sc3ccc(Oc4ccc(N5C(=O)c6ccc(Oc7ccc(Oc8ccc(Oc9ccc%10c(c9)C(=O)N(*)C%10=O)cc8)cc7)cc6C5=O)cc4)cc3)cc2)cc1 (repeat unit),194.00
21,*CCCCCNC(=O)Cc1ccc(C(=O)N*)cc1 (repeat unit),103.00
22,*C(=O)Nc1cc(NC(=O)c2ccc3c(c2)C(=O)N(c2cc(-c4nc5ccccc5s4)cc(N4C(=O)c5ccc(*)cc5C4=O)c2)C3=O)cc(-c2nc3ccccc3[nH]2)c1 (repeat unit),368.00

row,SMILES,glass transition temperature [°C]
1,*CCOCCOCCN1C(=O)c2ccc(C(=O)Oc3ccc(-c4ccc(OC(=O)c5ccc6c(c5)C(=O)N(*)C6=O)cc4)cc3)cc2C1=O (repeat unit),109.00
2,*CC(*)C(=O)Oc1ccc(C(C)(C)C)cc1 (repeat unit),71.00
3,*c1c(F)c(F)c(-c2c(F)c(F)c(Oc3ccc(-c4nn(*)c(=O)c5ccccc45)c(F)c3)c(F)c2F)c(F)c1F (repeat unit),253.00
4,*Oc1cc(Cl)cc(Cl)c1* (repeat unit),165.00
5,*c1cccc(N2C(=O)C3CCC(C4CCC5C(=O)N(*)C(=O)C5C4)CC3C2=O)c1 (repeat unit),263.00
6,*Oc1ccc(NC(=O)c2ccc(-c3ccc(C(=O)Nc4ccc(Oc5ccc(C(C)(C)c6ccc(*)cc6)cc5)cc4)c(C)c3)cc2C)cc1 (repeat unit),230.00
7,*CC(*)(C)C(=O)OCCCCCC(=O)Oc1ccc(OC(=O)c2ccc(OCCCC)cc2)cc1 (repeat unit),40.00
8,*[Si](*)(C)c1ccccc1 (repeat unit),88.00
9,*CC(*)CNc1ccc([N+](=O)[O-])cc1[N+](=O)[O-] (repeat unit),160.00
10,*CCC[Si](*)(C)O[Si](C)(C)CCCOc1ccc(C(=O)Oc2ccc(C#N)cc2)cc1 (repeat unit),-19.10
11,*CCOC(=O)Nc1cc(NC(=O)O*)ccc1C (repeat unit),52.00
12,*CC(*)OC(F)(C(F)(F)F)C(F)(F)F (repeat unit),65.00
13,*c1ccc(C(=O)NC(CC)COC(=O)c2ccc(N3C(=O)CC(SCCCCCSC4CC(=O)N(*)C4=O)C3=O)cc2)cc1 (repeat unit),91.00
14,*/C(=C(/*)c1ccc(Oc2ccccc2)cc1)c1ccccc1 (repeat unit),200.00
15,*OP(=O)(Oc1ccc(C(C)(C)c2ccc(*)cc2)cc1)Oc1c(Cl)cccc1Cl (repeat unit),96.00
16,*CCCOC(=O)c1ccc(C(=O)O*)cc1 (repeat unit) [Poly(trimethylene terephthalate)],52.92 ± 1.3
17,*C(=O)c1ccc2c(c1)C(=O)N(c1cc(N3C(=O)c4ccc(*)cc4C3=O)c(O)cc1O)C2=O (repeat unit),324.00
18,*Nc1cc(NC(=O)Nc2ccc(NC(*)=O)cc2)cc(C(=O)Nc2ccc3c(c2)C(=O)c2ccccc2C3=O)c1 (repeat unit),184.00
19,*CCN(*)C(=O)CCC (repeat unit),42.00
20,*c1ccc2c(c1)C(=O)N(c1cccc(C(F)(F)C(F)(F)C(F)(F)C(F)(F)C(F)(F)c3cccc(N4C(=O)c5ccc(C(F)(F)C(F)(F)C(F)(F)C(*)(F)F)cc5C4=O)c3)c1)C2=O (repeat unit),144.00
21,*CCOCCOCCOC(=O)CCCCCC(=O)O* (repeat unit),-44.50
22,*c1ccc(N2C(=O)c3ccc(-c4ccc5c(c4)C(=O)N(*)C5=O)cc3C2=O)cc1 (repeat unit),341.00

row,SMILES,glass transition temperature [°C]
1,*c1ccc(Oc2cc3ccccc3cc2Oc2ccc(N3C(=O)c4ccc(Oc5ccc6c(c5)C(=O)N(*)C6=O)cc4C3=O)cc2)cc1 (repeat unit),275.50
2,*CCCCCCC(=O)N* (repeat unit),52.00
3,*CC(C)(C)CS(=O)(=O)CC(C)(C)COC(=O)c1ccc(C(=O)O*)cc1 (repeat unit),105.00
4,*CCC1C(=O)N(C)C(=O)C1* (repeat unit),141.20
5,*c1ccc(-c2cc(-c3ccc(-c4ccccc4)cc3)cc(-c3ccc(N4C(=O)c5ccc(NC(=O)Nc6cccc7c(NC(=O)Nc8ccc9c(c8)C(=O)N(*)C9=O)cccc67)cc5C4=O)cc3)n2)cc1 (repeat unit),254.00
6,*Nc1ccccc1-c1ccc(NC(=O)c2ccc(C(*)=O)cc2)cc1 (repeat unit),275.00
7,*CC(*)(C)C(=O)OCCN(CC)c1ccc(/N=N/c2ccc(C#N)cc2)cc1 (repeat unit),119.00
8,*CC(*)OC(=O)c1ccc(Cl)cc1 (repeat unit),70.2
9,*c1cc(C(=O)Oc2cccc3cccnc23)c(*)s1 (repeat unit),154.00
10,*c1ccc(Oc2ccc(-c3ccc(Oc4ccc(N5C(=O)c6ccc(Oc7ccc8ccc(Oc9ccc%10c(c9)C(=O)N(*)C%10=O)cc8c7)cc6C5=O)cc4)cc3)cc2)cc1 (repeat unit),231.00
11,*c1ccc(Oc2ccc3ccc(Oc4ccc(-c5nc(*)nc(-c6ccccc6)n5)cc4)cc3c2)cc1 (repeat unit),255.00
12,*CCCCCCCCCCCCCCC(=O)O* (repeat unit) [poly(pentadecalactone)],-24.62 ± 3.6
13,*OC(CCl)C(*)CCl (repeat unit),95.00
14,*c1ccc(Oc2ccc3ccccc3c2-c2c(Oc3ccc(N4C(=O)c5ccc(NC(=O)Nc6ccc(Oc7ccc(NC(=O)Nc8ccc9c(c8)C(=O)N(*)C9=O)cc7)cc6)cc5C4=O)cc3)ccc3ccccc23)cc1 (repeat unit),274.00
15,*/C=C(/*)CCCOC(=O)c1cc(-c2ccc(OC)cc2)ccc1-c1ccc(OC)cc1 (repeat unit),72.40
16,*CC(*)(C)C(=O)OCCC(F)(F)C(F)(F)C(F)(F)C(F)(F)C(F)(F)C(F)(F)C(F)(F)C(F)(F)F (repeat unit),47.00
17,*Oc1ccc(CC(NC(=O)CCc2ccc(OC(=O)COCC(*)=O)cc2)C(=O)OCc2ccccc2)cc1 (repeat unit),76.00
18,*Oc1ccc(CC(NC(=O)Cc2ccc(OC(=O)CCCCCCC(*)=O)cc2)C(=O)OCC)cc1 (repeat unit),54.00
19,*CC(*)OC(=O)c1cccc(OC)c1 (repeat unit),44.00
20,*Oc1ccc(OC(=O)c2ccc(Sc3cccc(OC(=O)c4ccc(C(=O)Oc5cccc(Sc6ccc(C(*)=O)cc6)c5)cc4)c3)cc2)cc1C (repeat unit),135.00
21,*Oc1ccc(-c2ccc(OC(=O)c3ccc(C(*)=O)cc3)cc2)cc1-c1ccccc1 (repeat unit),132.00

# — the PolyMetriX glass transition set
